Laboratory results: publication PMC4980083 (JCI insight, 2016)

Key:
DU145 cells = assay: DU145 proliferation/viability; assay type: cell-based, human; details: up to 10 times the IC50 required to reduce AR-dependent proliferation; 3 days
GR = molecular target: T1, GR (Homo sapiens, UniProt P04150); assay: GR transcriptional activity, GRE luciferase reporter; assay type: cell-based; details: dexamethasone induced
T1 sequence (P04150 1-777): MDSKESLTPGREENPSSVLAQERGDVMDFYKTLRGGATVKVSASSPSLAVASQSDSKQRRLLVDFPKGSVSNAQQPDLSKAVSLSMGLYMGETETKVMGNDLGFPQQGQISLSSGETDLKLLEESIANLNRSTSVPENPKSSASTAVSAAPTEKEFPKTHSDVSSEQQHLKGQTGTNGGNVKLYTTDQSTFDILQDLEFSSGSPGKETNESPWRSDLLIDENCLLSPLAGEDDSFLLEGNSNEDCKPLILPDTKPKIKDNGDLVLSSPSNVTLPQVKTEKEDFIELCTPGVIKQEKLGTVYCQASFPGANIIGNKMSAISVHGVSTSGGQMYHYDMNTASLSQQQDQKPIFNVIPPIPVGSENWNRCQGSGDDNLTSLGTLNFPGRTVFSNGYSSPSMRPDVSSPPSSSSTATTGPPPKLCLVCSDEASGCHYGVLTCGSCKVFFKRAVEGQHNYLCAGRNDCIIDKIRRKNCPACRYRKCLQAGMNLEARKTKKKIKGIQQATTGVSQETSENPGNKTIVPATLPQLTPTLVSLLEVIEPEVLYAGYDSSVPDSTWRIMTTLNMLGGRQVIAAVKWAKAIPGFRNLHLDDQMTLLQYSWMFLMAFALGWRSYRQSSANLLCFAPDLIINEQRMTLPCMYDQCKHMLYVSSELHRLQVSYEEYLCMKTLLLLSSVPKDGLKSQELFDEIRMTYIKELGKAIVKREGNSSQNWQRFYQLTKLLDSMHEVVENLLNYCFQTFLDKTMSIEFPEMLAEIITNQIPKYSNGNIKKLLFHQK

GR LBD = molecular target: T2, GR LBD (Homo sapiens, UniProt P04150); assay: Fluorescence polarization competition binding, GR LBD
T2 sequence (P04150 524-758 limits assumed): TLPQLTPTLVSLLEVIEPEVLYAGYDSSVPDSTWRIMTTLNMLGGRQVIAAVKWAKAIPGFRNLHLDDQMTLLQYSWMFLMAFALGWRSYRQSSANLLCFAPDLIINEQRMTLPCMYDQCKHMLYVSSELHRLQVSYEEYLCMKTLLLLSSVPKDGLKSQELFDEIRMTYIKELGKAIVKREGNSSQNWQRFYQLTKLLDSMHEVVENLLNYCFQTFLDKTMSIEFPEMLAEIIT

ER LBD = assay: Fluorescence polarization competition binding, ER LBD
LNCaP95 cells = assay: LNCaP95 proliferation, BrdU incorporation; assay type: cell-based, human; details: I-EPI-002 2 μM, EPI-002 25 μM, enzalutamide 5 μM; 2 days

With 15-IodoEPI002 [I-EPI-002] the “effect on proliferation or viability of DU145 cells” value (DU145 cells) was “no effect”, the “inhibition of GR transcriptional activity” value (GR) was “did not inhibit” and the “competition for ligand binding to GR LBD” value (GR LBD) was “did not prevent ligand-binding”. The “competition for ligand binding to ER LBD” value (ER LBD) was “did not prevent ligand-binding” and the “effect on proliferation of LNCaP95 cells” value (LNCaP95 cells) was “decreased proliferation”.
